Results on four sequences are retold here after patent publication US11147854B2, “Peptides having immunomodulatory properties” (Riptide Bioscience, Inc., priority 2018, dated 2021).

The subject of test [1] is macrophages from scleroderma patients. Put plainly: Viability of peripheral blood derived macrophages from scleroderma patients (PrestoBlue assay). The format is cell-based, human. Particulars: for macrophage viability: scleroderma (SSc) patient with raised arginase:IFNg ratio of 8.8, even at 0.01 uM, 96 hours, PrestoBlue; for effect on scleroderma macrophage samples (high arginase:IFNg) versus healthy control samples (low arginase:IFNg) (FIG. 4A-4B): FIG. 4B versus FIG. 4A; for viability of macrophages (FIG. 3): samples from human scleroderma patients, 96 hours incubation, various concentrations. Here is the method:
(§1) Peripheral blood derived macrophages were cultured from healthy volunteers and scleroderma patients and cultured in MCS-F for 7 days prior to qPCR for arginasel (M2 marker) or IFNg (M1 marker), followed by treatment with RP peptides at a range of doses 0-100 uM. After 48 hours media were exchanged and cells were retreated with the peptides. After 96 hours cell viability was assayed by PrestoBlue assay. (FIG. 4A) Macrophages from a healthy control with low arginase:IFNg ratio of 3.6, were resistant to the effects of RP peptides of interest (RP182, RP185, RP832C, RP837) on viability.

The test system of test [2] is macrophages from healthy controls. Put plainly: Viability of peripheral blood derived macrophages from healthy volunteers (PrestoBlue assay). The note with it: healthy control with low arginase:IFNg ratio of 3.6, peptides 0-100 uM, 96 hours. The format is cell-based, human. Here is the method: as §1
A further test concerns CT26 Xenograft. Description: Mouse tumor inhibition model with and without anti-PD1 antibody (FIG. 2). The format is in vivo. The note with it: peptide 10 mg/kg qd. The protocol: The peptides RP832C and RP185 were administered at 10 mg/kg qd. The anti-PD1 antibody was administered intraperitoneally at 200 ug twice per week.

FFKKFFKKFK [RP185]: the macrophage viability result in test [1] is recorded as “greatly reduced viability”; in test [2], “resistant”. The tumor volume entry in the test with CT26 Xenograft was “reduce tumor volume”.

As to FWKRFVRKWR [RP837], in test [1], the “effect on scleroderma macrophage samples (high arginase:IFNg) versus healthy control samples (low arginase:IFNg) (FIG. 4A-4B)” value is reported as “selective effect”, the “viability of macrophages (FIG. 3)” value was “reduce viability” and the macrophage viability entry was “greatly reduced viability”. Also, the macrophage viability result in test [2] is “resistant”.

Turning to KFRKAFKRFF [RP182], the macrophage viability result in test [1] is on record as “greatly reduced viability”; in test [2], “resistant”.

With RWKFGGFKWR [RP832C], in test [1], the “effect on scleroderma macrophage samples (high arginase:IFNg) versus healthy control samples (low arginase:IFNg) (FIG. 4A-4B)” value is reported as “selective effect”, the “viability of macrophages (FIG. 3)” value was “reduce viability” and the macrophage viability entry is reported as “greatly reduced viability”. Further, the macrophage viability result in test [2] is listed as “resistant”. For the same sequence, in the test on CT26 Xenograft, the tumor volume result is recorded as “reduce tumor volume”.
